Source: US20260097047A1, “Small molecule inhibitors of the ribosome biogenesis factor NVL2” (Board of Regents, The University of Texas System, priority 2023, published 2026)

Test system: HCT116 cells
Assay: Cell viability assay (CellTiter-Glo, 72 hours) in HCT116 human colorectal cancer cells
Format: cell-based
Conditions: Homo sapiens, HCT-116; Table 5; HCT116, 72 hours; read-out: Activity
How it was run: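 2,000 cells/well adhered overnight, then compound added by digital dispenser with DMSO normalized to 0.5%. Viability read after 72 h at 37 °C by ATP-based CellTiter-Glo luminescence. IC50 from ten-point curves baseline-corrected to vehicle, five-parameter asymmetric least-squares fit.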

IC50 | Compound
< 500 nM | CCC/C=C/CN1C(=O)c2ccccc2Sc2cc(Nc3cc4ccccc4cn3)ccc21 [(E)-10-(Hex-2-en-1-yl)-7-(isoquinolin-3-ylamino)dibenzo[b,f][1,4]thiazepin-11 (10H)-one]
500 to 1000 nM | CCC/C=C/CN1C(=O)c2ccccc2Sc2cc(Nc3cc(C4CC4)ccn3)ccc21 [(E)-7-((4-Cyclopropylpyridin-2-yl)amino)-10-(hex-2-en-1-yl)dibenzo[b,f][1,4]thiazepin-11(10H)-one]
< 500 nM | CCC/C=C/CN1C(=O)c2ccccc2Sc2cc(Nc3ncccc3C)ccc21 [(E)-10-(Hex-2-en-1-yl)-7-((3-methylpyridin-2-yl)amino)dibenzo[b,f][1,4]thiazepin-11 (10H)-one]
1000 to 5000 nM | CCC/C=C/CN1C(=O)c2ccccc2Sc2cc(Nc3ncccn3)ccc21 [(E)-10-(Hex-2-en-1-yl)-7-(pyrimidin-2-ylamino)dibenzo[b,f][1,4]thiazepin-11 (10H)-one]
< 500 nM | CC#CCN1C(=O)c2ccccc2Cc2cc(Nc3nccnc3C#N)ccc21 [3-((5-(But-2-yn-1-yl)-6-oxo-6,11-dihydro-5H-dibenzo[b,e]azepin-2-yl)amino) pyrazine-2-carbonitrile]
< 500 nM | CC#CCN1C(=O)c2ccccc2Sc2cc(Nc3nnc(C#N)cc3C)ccc21 [6-((10-(But-2-yn-1-yl)-11-oxo-10,11-dihydrodibenzo[b,f][1,4]thiazepin-7-yl)amino)-5-methylpyridazine-3-carbonitrile]
< 500 nM | CC#CCN1C(=O)c2ccc(C#N)cc2Sc2cc(Nc3nnccc3C#N)ccc21 [10-(But-2-yn-1-yl)-7-((4-cyanopyridazin-3-yl)amino)-11-oxo-10,11-dihydrodibenzo[b,f][1,4]thiazepine-3-carbonitrile]

Same assay, conditions: Homo sapiens, HCT-116; Table 6; HCT116, 72 hours; read-out: Activity

IC50 | Compound
< 500 nM | CC#CCN1C(=O)c2ccccc2Sc2cc(NC3COCC3C)cnc21 (stereo not shown) [11-(But-2-yn-1-yl)-3-((4-methyltetrahydrofuran-3-yl)amino)benzo[f]pyrido[3,2-b][1,4]thiazepin-10(11H)-one]

Same assay, conditions: Homo sapiens, HCT-116; Table 9; HCT116, 72 hours; read-out: Activity

IC50 | Compound
< 500 nM | CC#CCN1C(=O)c2ccccc2C(C)(O)c2cc(NC(=O)c3ccc(OC)cc3)ccc21 (stereo not shown) [Table 9: —CH2CCMe; 4-MeOPh; CMeOH, N-(5-(But-2-yn-1-yl)-11-hydroxy-11-methyl-6-oxo-6,11-dihydro-5H-dibenzo[b,e]azepin-2-yl)-4-methoxybenzamide]

Same assay, conditions: Homo sapiens, HCT-116; read-out: IC50s (cellular activity of MM017 derivatives)

IC50 | Compound
13000 nM | COCCN1C(=O)c2ccccc2Sc2cc(NC(=O)c3ccccc3OC)ccc21 [compound 5]

Same assay, conditions: Table 1; HCT116, 72 hours; read-out: Activity

IC50 | Compound
< 500 nM | CC#CCN1C(=O)c2ccccc2Sc2cc(NC(=O)N3CCCC3)cnc21

Same assay, conditions: Table 2; HCT116, 72 hours; read-out: Activity

IC50 | Compound
< 500 nM | CC#CCN1C(=O)c2ccccc2Sc2cc(NC(=S)N3CCCCC3)cnc21 [Table 2: —CH2CCMe; piperidin-1-yl; CH; N]
< 500 nM | CC#CCN1C(=O)c2ccccc2Sc2cc(NC(=S)N3CCCC3)cnc21

Same assay, conditions: Table 3; HCT116, 72 hours; read-out: Activity

IC50 | Compound
< 500 nM | CC#CCN1C(=O)c2ccccc2Sc2cc(NC(=O)Nc3cccc(OCF)c3)ccc21 [Table 3: —CH2CCMe; 3-FH2COPh; CH/CH]
< 500 nM | CC#CCN1C(=O)c2ccccc2Sc2cc(NC(=O)Nc3ccc4oc(=O)n(C)c4c3)ccc21
< 500 nM | CC#CCN1C(=O)c2ccccc2Sc2cc(NC(=O)N[C@H]3C[C@H](O)C3)ccc21 [Table 3: —CH2CCMe; trans-3-OH-cBu; CH/CH]

Same assay, conditions: Table 4; HCT116, 72 hours; read-out: Activity

IC50 | Compound
< 500 nM | CC#CCN1C(=O)c2ccccc2Sc2cc(NC(=S)Nc3cccc(OC)c3)cnc21 [Table 4: —CH2CCMe; 3-MeOPh; N]
< 500 nM | CC#CCN1C(=O)c2ccccc2Sc2cc(NC(=S)NC3COC3)ccc21 [Table 4: —CH2CCMe; oxetan-3-yl; CH]
< 500 nM | CC#CCN1C(=O)c2ccccc2Sc2cc(NC(=S)N[C@H]3C[C@@H](O)C3)cnc21 [Table 4: —CH2CCMe; cis-3-OH-cBu; N]
< 500 nM | CC#CCN1C(=O)c2ccccc2Sc2cc(NC(=S)Nc3cccc(OCF)c3)cnc21 [Table 4: —CH2CCMe; 3-FH2COPh; N]

Same assay, conditions: Table 5; HCT116, 72 hours; read-out: Activity

IC50 | Compound
< 500 nM | CC#CCN1C(=O)c2ccccc2Sc2cc(Nc3nccc(C#N)c3F)cnc21
< 500 nM | CC#CCN1C(=O)c2ccccc2Sc2cc(Nc3nc(C)cnc3C)cnc21
< 500 nM | CCCC=CCN1C(=O)c2ccccc2Sc2cc(Nc3nccnc3C)cnc21
< 500 nM | C#CCN1C(=O)c2ccccc2Sc2cc(Nc3nnccc3C)ccc21
< 500 nM | Cc1cnc(Nc2cnc3c(c2)Sc2ccccc2C(=O)N3CC#CCl)c(C)n1

Compound | IC50
C#CCN1C(=O)c2ccccc2Sc2cc(Nc3cccnn3)cnc21 | < 500 nM

Same assay, conditions: Table 6; HCT116, 72 hours; read-out: Activity

IC50 | Compound
< 500 nM | CC#CCN1C(=O)c2ccccc2Sc2cc(NCCCO)ccc21 [Table 6: —CH2CCMe; (CH2)3OH; CH/CH; S]
< 500 nM | CC#CCN1C(=O)c2ccccc2Sc2cc(NCCCOC)cnc21 [Table 6: —CH2CCMe; (CH2)3OMe; CH/N; S]
< 500 nM | CC#CCN1C(=O)c2ccccc2Cc2cc(NC3CC(O)C3)ccc21 (stereo not shown) [Table 6: —CH2CCMe; 3-HOcBu; CH/CH; CH2]
< 500 nM | COCC1CC(Nc2cnc3c(c2)Sc2ccccc2C(=O)N3CC#CCl)C1 (stereo not shown) [Table 6: —CH2CCCl; 3-MeOCH2-cBu; CH/N; S]

Same assay, conditions: Table 7; cell viability assay, CellTiter-Glo, 72 hours; scaffold drawing 42 with R^2, R^3, X/Y, Z; read-out: Activity

IC50 | Compound
1000 to 5000 nM | COCCN1C(=O)c2ccccc2Sc2cc(NC(=O)c3ccc(F)c(Cl)c3)ccc21 [—(CH2)2OMe; 3-Cl,4-FPh; CH/CH; S]
1000 to 5000 nM | COCCN1C(=O)c2ccccc2Sc2cc(NC(=O)c3ccc4oc(=O)[nH]c4c3)ccc21
500 to 1000 nM | COCCN1C(=O)c2ccccc2Sc2cc(NC(=O)c3ccc(F)c(OC)c3)ccc21 [—(CH2)2OMe; 3-MeO,4-FPh; CH/CH; S]
1000 to 5000 nM | COCCN1C(=O)c2ccccc2Sc2cc(NC(=O)c3ccn4ccnc4c3)ccc21
< 500 nM | C=CCCCOCCN1C(=O)c2ccccc2Sc2cc(NC(=O)c3ccoc3)ccc21
1000 to 5000 nM | COCCN1C(=O)c2ccccc2Sc2cc(NC(=O)C3CCCCC3)ccc21 [—(CH2)2OMe; cHex; CH/CH; S]

Same assay, conditions: Table 8; analogs of scaffold drawing 43 defined by R^2, R^3, X/Y, W; read-out: Activity (IC50 class, cell viability assay)

Compound | IC50
O=C(Nc1cnc2c(c1)Sc1ccccc1C(=O)N2CC#CC(F)(F)F)C1CC2(CC(=NO)C2)C1 (stereo not shown) | < 500 nM
CC#CCN1C(=O)c2cc(F)ccc2Sc2cc(NC(=O)OCCOC)ccc21 [—CH2CCMe; O(CH2)2OMe; CH/CF; CH] | < 500 nM
CC#CCN1C(=O)c2ccccc2Sc2cc(NC(=O)C=CCOC)cnc21 [—CH2CCMe; CH—CHCH2OMe; CH/CH; N] | < 500 nM
CO[C@H]1C[C@H](C(=O)Nc2ccc3c(c2)Sc2ccc(F)cc2C(=O)N3CC#CCF)C1 [—CH2CCCH2F; trans-3-MeOcBu; CH/CF; CH] | < 500 nM
CC#CCN1C(=O)c2ccccc2Sc2cc(NC(=O)CC3COC3)cnc21 [—CH2CCMe; (oxetan-3-yl)CH2; CH/CH; N] | < 500 nM
CC#CCN1C(=O)c2cc(F)ccc2Sc2cc(NC(=O)[C@@H]3C[C@H]3CO)ccc21 (relative stereo) [—CH2CCMe; trans-2-HOCH2-cPr; CH/CF; CH] | < 500 nM
CC#CCN1C(=O)c2ccc(Cl)cc2Sc2cc(NC(=O)CC3COC3)ccc21 [—CH2CCMe; (oxetan-3-yl)CH2; CCl/CH; CH] | < 500 nM
O=C(Nc1cnc2c(c1)Sc1cc(Cl)ccc1C(=O)N2CC#CCl)C1CC2(CC(=NO)C2)C1 (stereo not shown) | < 500 nM
CC#CCN1C(=O)c2cc(F)ccc2Sc2cc(NC(=O)[C@@H]3C[C@H]3CO)cnc21 (relative stereo) [—CH2CCMe; trans-2-HOCH2-cPr; CH/CF; N] | < 500 nM
CC#CCN1C(=O)c2ccc(C#N)cc2Sc2cc(NC(=O)[C@@H]3C[C@H]3COC)ccc21 (relative stereo) [—CH2CCMe; trans-2-MeOCH2-cPr; CCN/CH; CH] | < 500 nM
CC#CCN1C(=O)c2ccc(Cl)cc2Sc2cc(NC(=O)C3CCOC3)ccc21 (stereo not shown) | < 500 nM
CO[C@H]1C[C@H](C(=O)Nc2cnc3c(c2)Sc2ccccc2C(=O)N3CC#CCl)C1 [—CH2CCCl; trans-3-MeOcBu; CH/CH; N] | < 500 nM

The remaining lines, values ahead:

IC50 | Compound
< 500 nM | C#CCN1C(=O)c2ccc(Cl)cc2Sc2cc(NC(=O)C3CC4(CC(=NOC)C4)C3)ccc21 (stereo not shown)
< 500 nM | CC#CCN1C(=O)c2ccccc2Sc2cc(NC(=O)C3CC4(CC(=O)C4)C3)ccc21
< 500 nM | CC#CCN1C(=O)c2ccccc2Sc2cc(NC(=O)c3ccc(OC(F)(F)F)cc3)ccc21 [—CH2CCMe; 4-CF3OPh; CH/CH; CH]
< 500 nM | CC#CCN1C(=O)c2ccccc2Sc2cc(NC(=O)C(C)CCOC)ccc21 (stereo not shown) [—CH2CCMe; MeO(CH2)2CHMe-; CH/CH; CH]
< 500 nM | CC#CCN1C(=O)c2ccc(Cl)cc2Sc2cc(NC(=O)[C@H]3C[C@@H](OC)C3)ccc21 [—CH2CCMe; cis-3-MeOcBu; CCI/CH; CH]
< 500 nM | CC#CCN1C(=O)c2ccccc2Sc2cc(NC(=O)C3CCC3)cnc21 [—CH2CCMe; cBu; CH/CH; N]
< 500 nM | CC#CCN1C(=O)c2ccc(F)cc2Sc2cc(NC(=O)c3ccc(OC)nc3)ccc21 [—CH2CCMe; 6-MeO-pyrid-3-yl; CF/CH; CH]
< 500 nM | C#Cc1ccc(C(=O)Nc2ccc3c(c2)Sc2ccccc2C(=O)N3CC#CC)cn1 [—CH2CCMe; 6-(HCC)pyrid-3-yl; CH/CH; CH]

Same assay, conditions: Table 9; HCT116, 72 hours; read-out: Activity

IC50 | Compound
< 500 nM | CC1c2ccccc2C(=O)N(CC#CC2CC2)c2ccc(NC(=O)[C@H]3C[C@H](O)C3)cc21 (stereo partly shown)
< 500 nM | CC#CCN1C(=O)c2ccccc2Cc2cc(NC(=O)C3CC4(CC(=NO)C4)C3)ccc21 (stereo not shown)
< 500 nM | CC#CCN1C(=O)c2ccccc2Cc2cc(NC(=O)C34CC(OC)(C3)C4)ccc21
< 500 nM | CC#CCN1C(=O)c2ccccc2C(C#N)c2cc(NC(=O)C3CC4(CC(=NO)C4)C3)ccc21 (stereo not shown)

Same assay, conditions: cell viability assay; Table 10 analogs of scaffold drawing 45 defined by R2, R3, X/Y, W; read-out: Activity

IC50 | Compound
< 500 nM | CO[C@H]1C[C@H](C(=O)Nc2cnc3c(c2)Sc2ccccc2C(=O)N3CC#CCl)C1 [—CH2CCCl; trans-3-MeOcBu; CH/CH; N]
